In test [1] the test system is picornaviruses (CVB1, HRV-A2, HRV-A23, EV-68). Description: Anti-picornavirus cytopathic effect (CPE) reduction assay on HeLa H1 cells. The class given is cell-based. Conditions: Enterovirus B. As for the experimental part: The antiviral activity of selected compounds was tested using a cytopathic effect (CPE) reduction assay on HeLa H1 cells (ATCC CRL-1958). Briefly, cells were seeded in 96-well dishes (2×10^4 cells/well) in DMEM medium (Life technologies) supplemented with 10% FBS and PenStrep solution (100 U/mL Penicillin and 100 μg/mL streptomycin) and incubated at 37° C., 5% CO2 ovemight. The next day, cells were pre-treated with serial dilutions of the compound in DMEM medium supplemented with 2% FBS and PenStrep for 2 h at 37° C., 5% CO2. Next, cells were infected with virus (CVB1, HRV-A2, HRV-A23, EV-68) at an multiplicity of infection (MOI) which results in a complete virus-induced CPE within 2 days in control wells (infected and vehicle-treated). After 48 h, supematants were aspirated and 50 μl/well of CellTiterBlue reagent (Promega) diluted 1:5 in DMEM+2% FBS, was added to the cells. Plates were returned to the incubator and allowed to develop for 1.5 h. After that, plates were equilibrated to RT and subsequently, fluorescence was recorded (Excitation wavelength: 560 nm; emission wavelength: 590 nm) using a SpectraMax M5 multimode plate reader. Viability of cells was calculated according to the formula: V=(RFUCpd−RFUVeh/(RFUM−RFUVeh), where RFUCpd refers to infected and compound-treated cells, RFUVeh to infected and vehicle-treated cells and RFUM to uninfected and vehicle treated cells. Half-maximal effective concentrations (EC50) were calculated by non-linear regression analysis using the drc package in R (R Development. Core Team, 2005). EC50 categories as presented in Table 2 were calculated by averaging the EC50 values from four picornaviruses (CVB1, HRV-A2, HRV-A23, EV68).
Background: Damage to the host cells serves as the signal in cytopathic effect assays.

The target in another test is T1, PLA2G16 (Homo sapiens, UniProt P53816).
T1 construct: Hexa-His (N); made in house; host or cells: E. coli BL21(DE3)
T1 sequence (P53816 1-162): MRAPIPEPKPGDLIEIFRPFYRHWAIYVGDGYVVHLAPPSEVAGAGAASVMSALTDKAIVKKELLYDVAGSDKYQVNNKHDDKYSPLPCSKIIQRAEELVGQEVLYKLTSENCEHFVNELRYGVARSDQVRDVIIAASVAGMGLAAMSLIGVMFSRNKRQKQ
Description: Enzyme activity assay for PLA2G16 (Red/Green BODIPY PC-A2 fluorescence). Conditions: His-tagged PLA2G16, 4 min pre-incubation, 2 nM to 50 μM; read-out: IC50 values of the compounds determined in the enzyme activity assay for PLA2G16. The format is biochemical. The source says: A cDNA for PLA2G16(NM_007069) was custom-synthesized by Genscript (Piscataway, USA) and inserted into a pET-based bacterial expression vector [Moffatt, B. A. and Studier, F. W. (1986) J. Mol. Biol. 189, 113-130; Rosenberg, A. H., Lade, B. N., Chui, D., Lin, S., Dunn, J. J., and Studier, F. W. (1987) Gene 56, 125-135], enabling the expression of N-terminally Hexa-His-tagged PLA2G16. E. coli BL21(DE3) (Agilent) were transformed with pET-His-PLA2G16according to the manufacturer's instructions and plated on Carbenicillin-containing agar plates (final concentration: 100 μg/mL). A single clone was in occulated in 100 mL LB medium supplemented with 100 μg/mL Carbenicillin and the in occulated culture was grown at 37° C. overnight in a rotary shaker. On the next day, the bacterial culture was diluted in LB medium supplemented with 100 μg/mL Carbenicillin (30 mL overnight culture in 800 mL total culture volume). Bacteria were grown at 37° C. until the OD600 reached 0.6. Gene expression was induced by addition of 1 mM isopropyl-β-D-thiogalactopyranosid (IPTG) for 2 h at 18° C. Subsequently, bacteria were harvested by centrifugation (15 min; 10,000×g; 4° C.) and frozen at −80° C. The bacterial pellet was resuspended in Buffer A (50 mM Tris/HCl pH 7.5, 500 mM NaCl, 5% glycerol, 5 mM β-Mercaptoethanol and 1 mM PMSF) and lysed by addition of 1 mg/mL lysozyme (Sigma Aldrich) and 100 μg/mL DNasel-(Roche). The sample was incubated at 30° C. for 30 min to allow lysis to occur. Then, the lysate was cleared by centrifugation (15,000×g, 15 min, 4° C.) and incubated with 1.5 mL Ni-NTA agarose suspension (Qiagen) for 60 min at 4° C. The Ni-NTA agarose was washed with 10 mL Buffer A. Bound protein was eluted by applying a manual gradient of Buffer A supplemented with increasing concentrations of imidazole (Sigma Aldrich; 25/50/75/100/250 mM). Purified fractions were analyzed by SDS-PAGE followed by Coomassie staining to assess the purity.
Activity of the protein was assessed as follows: Red/Green BODIPY® PC-A2 (Invitrogen, 1 mM in DMSO) was mixed with equal volumes of 1,2-Dioleoyl-sn-glycero-3-phosphocholine (DOPC; Sigma Aldrich, 10 mM in Ethanol) and 1,2-Dioleoyl-sn-glycero-3-phospho-rac-(1-glycerol) (DOPG; Sigma Aldrich, 10 mM in Ethanol) and 0.5 volumes of Cholesterol (CHOL; Sigma Aldrich, 10 mM in Ethanol) and vortexed for 5 s. The mixture (Red/Green BODIPY® PC-A2/DOPC/DOPG/CHOL) was diluted 1:91.4 in activity assay buffer (50 mM Tris/HCl pH 8.5, 100 mM NaCl) using a small-orifice pipette tip under constant vortexing. In the following, this preparation will be referred to as the “substrate solution”.
In order to evaluate their inhibitory potential, compounds were dissolved at 10 mM concentration in DMSO and directly spotted into assay plates (Corning, Cat. No. 3576) using acoustic liquid transfer (Labcyte Echo 525). Each compound was spotted at increasing concentrations, ranging from 2 nM to 50 μM (concentration in the final assay volume). 50 μl of PLA2G16 enzyme solution (diluted in activity buffer, supplemented with 5 mM L-Glutathione; Sigma Aldrich) was pre-incubated with compounds for 4 min., followed by addition of 50 μl of substrate solution. Fluorescence was recorded immediately after substrate addition for a total time of 10 min. using a SpectraMax M5 multimode reader (Excitation wavelength: 480 nm, emission wavelength: 530 nm). The relative increase of fluorescence over time is referred to as the enzyme activity. Half-maximal inhibitory concentrations (IC50) were derived by non-linear regression analysis using the drc package in R (R Development. Core Team, 2005).

[2] abbreviates: HeLa H1, 48 h, HeLa H1 cells, 48 h, category from averaging the EC50 values from four picornaviruses (CVB1, HRV-A2, HRV-A23, EV68), read-out: EC50 values of the compounds determined in the anti-picornavirus assay.
The mark [3] stands for this setting: HeLa H1, 48 h, read-out: EC50 values of the compounds determined in the anti-picornavirus assay, HeLa H1 cells, 48 h, category from averaging the EC50 values from four picornaviruses (CVB1, HRV-A2, HRV-A23, EV68).

Like-named read-outs stand apart in the source and are kept apart here.

By EC50 is commonly meant the midpoint of the concentration-response curve. By IC50 is commonly meant the concentration that inhibits the measured activity by half. As to `O=CN(Cc1ccccc1)[C@@H](Cc1c[nH]cn1)C(=O)C(=O)NCC1CCCCC1` [FP 118, (3S)-3-(N-Benzylformamido)-N-(cyclohexylmethyl)-4-(1H-imidazol-4-yl)-2-oxobutanamide], the EC50 in test [1] (setting [2]) was in the range of 1000 to 10000 nM. Besides, the half-inhibitory concentration (IC50) at PLA2G16 was less than 1000 nM.
The corresponding values for `CC(C)CNC(=O)C(=O)C(C)N(C=O)Cc1ccccc1` (stereo not shown) [FP 47, 3-(N-Benzylformamido)-N-(2-methylpropyl)-2-oxobutanamide] are 1000 to 10000 nM and less than 1000 nM.
For `CC(C)CC(C(=O)C(=O)NCC1CC1)N(C=O)CC1CCOC1` (stereo not shown) [FP 73, N-(Cyclopropylmethyl)-5-methyl-2-oxo-3-{N-[(oxolan-3-yl)methyl]formamido} hexanamide], in test [1] (setting [2]), the EC50 lay in the range of 1000 to 10000 nM. On PLA2G16, the IC50 is less than 1000 nM.
Regarding `CC(C)C(=O)NCCCCNC(=O)C(=O)[C@H]1CCC(=O)N1Cc1ccccc1` [FP 304, N-(4-{2-[(2R)-1-Benzyl-5-oxopyrrolidin-2-yl]-2-oxoacetamido}butyl)-2-methylpropan-amide], the EC50 in test [1] (setting [2]) was 1000 to 10000 nM. The half-inhibitory concentration (IC50) on PLA2G16 was less than 1000 nM.
With `Cc1ccccc1CN1C(=O)CCC1C(=O)C(=O)NC1CC1` (stereo not shown) [FP 261, N-Cyclopropyl-2-{1-[(2-methylphenyl)methyl]-5-oxopyrrolidin-2-yl}-2-oxoacetamide], the concentration giving a half-maximal response (EC50) in test [1] (setting [2]) is 1000 to 10000 nM. Also, the IC50 at PLA2G16 was less than 1000 nM.
Consider `O=CN(Cc1ccccc1)C(C(=O)C(=O)NCC1CC1)C1CCOCC1` (stereo not shown) [FP 71, 3-(N-Benzylformamido)-N-(cyclopropylmethyl)-3-(oxan-4-yl)-2-oxopropanamide], for which, in test [1] (setting [2]), the EC50 lay in the range of 1000 to 10000 nM. The IC50 on PLA2G16 was less than 1000 nM.
Consider `CC(C(=O)C(=O)NCC1CC1)N(C)S(=O)(=O)c1ccccc1` (stereo not shown) [FP 221, N-(Cyclopropylmethyl)-3-(N-methylbenzenesulfonamido)-2-oxobutanamide], for which the EC50 in test [1] (setting [2]) was more than 10000 nM. For the same compound, on PLA2G16, the IC50 was less than 1000 nM.
Regarding `O=C(NCC1CCCCC1)C(=O)C1CCC(=O)N1CC1CCOCC1` (stereo not shown) [FP 248, N-(Cyclohexylmethyl)-2-{1-[(oxan-4-yl)methyl]-5-oxopyrrolidin-2-yl}-2-oxoacetamide], the EC50 in test [1] (setting [2]) was less than 1000 nM. Moreover, the IC50 at PLA2G16 is less than 1000 nM.
Regarding `CC(OCC1CCCCC1)C(=O)C(=O)NCC1CC1` (stereo not shown) [FP 123, 3-(Cyclohexylmethoxy)-N-(cyclopropylmethyl)-2-oxobutanamide], in test [1] (setting [3]), the EC50 lay in the range of 1000 to 10000 nM.
Consider `CC(C)N(C=O)C(C)C(=O)C(=O)NCC1CCCCC1` (stereo not shown) [FP 48, N-(Cyclohexylmethyl)-2-oxo-3-[N-(propan-2-yl)formamido]butanamide], for which the EC50 in test [1] (setting [2]) lay in the range of 1000 to 10000 nM. The IC50 on PLA2G16 is less than 1000 nM.
With `Cc1ccncc1C(=O)NC(C)C(=O)C(=O)NCC1CCCCC1` (stereo not shown) [FP 209, N-(Cyclohexylmethyl)-3-[(4-methylpyridin-3-yl)formamido]-2-oxobutanamide], the EC50 in test [1] (setting [2]) was 1000 to 10000 nM. Also, the IC50 on PLA2G16 was less than 1000 nM.
As to `O=C(NC1CC1)C(=O)[C@H]1CCC(=O)N1Cc1ccccc1`, in test [1] (CVB1|EV68|HRVA2|HRVA23, HeLa H1, 48 h, HeLa H1 cells, 48 h, category from averaging the EC50 values from four picornaviruses (CVB1, HRV-A2, HRV-A23, EV68), read-out: EC50 values of the compounds determined in the anti-picornavirus assay), the concentration giving a half-maximal response (EC50) was less than 1000 nM. The IC50 on PLA2G16 was less than 1000 nM.
With `CCC(C(=O)C(=O)NCC1CCCCC1)N(C=O)CC1CCN(C(=O)OC(C)(C)C)CC1` (stereo not shown) [FP 59, tert-Butyl 4-[(N-{1-[(cyclohexylmethyl)carbamoyl]-1-oxobutan-2-yl} formamido)methyl]-piperidine-1-carboxylate], in test [1] (setting [2]), the half-maximal effective concentration (EC50) was 1000 to 10000 nM. At PLA2G16, the concentration for half-maximal inhibition (IC50) is less than 1000 nM.
On to `O=C(NC1CC1)C(=O)[C@H]1CCC(=O)N1Cc1ccc(Cl)cc1` [FP 284, 2-[(2R)-1-[(4-Chlorophenyl)methyl]-5-oxopyrrolidin-2-yl]-N-cyclopropyl-2-oxoacetamide], for which, in test [1] (setting [2]), the EC50 is less than 1000 nM. On PLA2G16, the half-inhibitory concentration (IC50) was less than 1000 nM.
In the case of `O=C(NCC1CC1)C(=O)[C@@H]1CCC(=O)N1Cc1ccccc1` [FP 225, 2-[(2S)-1-Benzyl-5-oxopyrrolidin-2-yl]-N-(cyclopropylmethyl)-2-oxoacetamide], in test [1] (setting [3]), the EC50 is more than 10000 nM.
On to `COc1ccccc1N(C=O)[C@H](C)C(=O)C(=O)NCc1cccc(Cl)c1` (single isomer, unassigned) [FP 2], for which, at PLA2G16, the IC50 was less than 1000 nM.
With `COc1ccccc1N(C=O)C(C)C(=O)C(=O)NCc1cccc(C)c1` (stereo not shown) [FP 87, 3-[N-(2-Methoxyphenyl)formamido]-N-[(3-methylphenyl)methyl]-2-oxo butanamide], the half-maximal inhibitory concentration (IC50) on PLA2G16 is less than 1000 nM.
`COc1ccccc1N(C=O)C(C)C(=O)C(=O)NCc1ccccc1Cl` (stereo not shown) [FP 86, N-[(2-Chlorophenyl)methyl]-3-[N-(2-methoxyphenyl)formamido]-2-oxobutanamide]: the IC50 at PLA2G16 is less than 1000 nM.
As to `COc1ccccc1N(C=O)C(C)C(=O)C(=O)N1CCc2ccc(Cl)cc2C1` (stereo not shown) [FP 76, N-[4-(7-Chloro-1,2,3,4-tetrahydroisoquinolin-2-yl)-3,4-dioxobutan-2-yl]-N-(2-methoxy-phenyl)formamide], at PLA2G16, the half-maximal inhibitory concentration (IC50) was in the range of 10000 to 50000 nM.
Turning to `COc1ccccc1N(C=O)CC(=O)C(=O)NCc1cccc(Cl)c1` [FP 19, N-[(3-Chlorophenyl)methyl]-3-[N-(2-methoxyphenyl)formamido]-2-oxopropanamide], the IC50 on PLA2G16 was less than 1000 nM.
Take `COc1ccccc1N(C=O)C(C)C(=O)C(=O)NC(C)c1cccc(Cl)c1` (stereo not shown) [FP 84, N-[1-(3-Chlorophenyl)ethyl]-3-[N-(2-methoxyphenyl)formamido]-2-oxobutanamide]: the IC50 at PLA2G16 was less than 1000 nM.

Values taken from patent publication US11091428B2 (HAPLOGEN GMBH, priority 2016, dated 2021).
